# Results taken from patent publication US20150266878A1, “NOVEL BI-RING PHENYL-PYRIDINES/PYRAZINES FOR THE TREATMENT OF CANCER” (HOFFMANN-LA ROCHE INC., priority 2012, published 2015).
# Target: T1, CDK8/Cyclin C (Homo sapiens, UniProt P49336)
# T1 construct: purchased Invitrogen PV4402
# Experiment: CDK8/Cyclin C LANCE TR-FRET kinase assay
# Format: biochemical
# Details: CDK8/Cyclin C 10 nM, ATP 24 μM, Ulight-GS peptide 80 nM, 37° C. 30 mins
# From the text: CDK8/Cyclin C LANCE TR-FRET Kinase Assay:
# The biological activity of the compounds of the invention can be determined using the assay described below.
# CDK8/Cyclin C protein was obtained from Invitrogen, cat #PV4402. ULight-Glycogen Synthase (Ulight-GS) peptide with sequence PASVPPSPSLSRHSSPHQ(pS)ED, and Europium-anti-phospho Glycogen Synthase (Ser641) [Eu-anti-P-GS (Ser641)] were obtained from Perkin Elmer, cat #TRF0131-M and cat #TRF0220. Adenosine-5′-triphosphate (ATP) was obtained from Invitrogen, cat #PV3227.
# A mixture of (1) a compound of formula I, (2) substrate [Ulight-GS peptide (80 nM) and ATP (24 μM)], and (3) CDK8/Cyclin C (10 nM) in reaction buffer (50 mM Hepes, pH7.0, 10 mM MgCl2, 1 mM EGTA, 0.2 mg/mL BSA, 0.8 mM DTT) were incubated at 37° C. for 30 mins. Then, [Eu-anti-P-GS (Ser641)] (1.5 nM) was added. Following incubation at room temperature for 30 mins, the TR-FRET signals were detected using Envision reader (Ex 340 nm, Em 615 nm and 665 nm) from Perkin Elmer. The reactivity in percentage of inhibition or dose response was analyzed with GraphPad Prism 5 (GraphPad Software).
# T1 sequence (P49336 whole entry): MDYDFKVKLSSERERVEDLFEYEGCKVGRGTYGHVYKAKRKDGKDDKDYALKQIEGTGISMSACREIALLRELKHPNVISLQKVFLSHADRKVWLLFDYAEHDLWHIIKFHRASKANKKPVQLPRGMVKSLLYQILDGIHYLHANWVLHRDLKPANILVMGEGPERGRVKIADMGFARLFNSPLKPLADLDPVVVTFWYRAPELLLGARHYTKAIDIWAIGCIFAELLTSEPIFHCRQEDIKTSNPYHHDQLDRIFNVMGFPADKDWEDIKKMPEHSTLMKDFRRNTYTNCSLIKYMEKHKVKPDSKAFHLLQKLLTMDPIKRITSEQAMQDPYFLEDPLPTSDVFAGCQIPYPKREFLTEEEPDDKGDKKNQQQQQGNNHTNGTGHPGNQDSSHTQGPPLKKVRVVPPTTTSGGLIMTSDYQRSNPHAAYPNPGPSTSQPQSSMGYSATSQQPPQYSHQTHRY
# T1 sequence (P24863 whole entry partner): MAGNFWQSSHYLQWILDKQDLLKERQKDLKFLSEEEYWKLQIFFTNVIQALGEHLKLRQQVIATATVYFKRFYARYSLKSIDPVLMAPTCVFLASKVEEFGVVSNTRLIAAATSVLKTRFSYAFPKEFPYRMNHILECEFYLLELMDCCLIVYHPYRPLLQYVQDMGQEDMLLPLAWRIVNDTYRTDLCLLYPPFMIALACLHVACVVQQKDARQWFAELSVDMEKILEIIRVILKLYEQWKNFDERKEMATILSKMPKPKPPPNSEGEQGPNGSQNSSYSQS
row,IC50 [nM],Structure (SMILES)
1,0.8,"Nc1n[nH]c2ccc(-c3cncc(N[C@@H](CO)c4ccccc4)c3)cc12 [Example 18, (R)-2-[5-(3-Amino-1H-indazol-5-yl)-pyridin-3-ylamino]-2-phenyl-ethanol]"
2,0.5,"CSc1n[nH]c2ccc(-c3cncc(N[C@@H](CO)c4ccccc4)c3)cc12 [Example 22, (R)-2-[5-(3-Methylsulfanyl-1H-indazol-5-yl)-pyridin-3-ylamino]-2-phenyl-ethanol]"
3,5,"Cc1n[nH]c2ccc(-c3cncc(N[C@@H](CNCCO)c4ccccc4)c3)cc12 [Example 56, 2-{(R)-2-[5-(3-Methyl-1H-indazol-5-yl)-pyridin-3-ylamino]-2-phenyl-ethylamino}-ethanol]"
4,2.4,"O=C(CO)NC[C@H](Nc1cncc(-c2ccc3[nH]nc(F)c3c2)c1)c1ccccc1 [Example 46, N-{(R)-2-[5-(3-Fluoro-1H-indazol-5-yl)-pyridin-3-ylamino]-2-phenyl-ethyl}-2-hydroxy-acetamide]"
5,1.8,OC[C@H](Nc1cncc(-c2ccc3[nH]nc(F)c3c2)c1)c1ccccc1 [Example 19]
6,3.8,"O=c1[nH]c2ccc(-c3cncc(N[C@@H](CO)c4ccccc4)c3)cc2o1 [Example 12, 6-[5-((R)-2-Hydroxy-1-phenyl-ethylamino)-pyridin-3-yl]-3H-benzooxazol-2-one]"
7,7.8,"O=c1[nH]c2ccc(-c3cncc(N[C@@H](CO)c4ccccc4)c3)cc2s1 [Example 13, 6-[5-((R)-2-Hydroxy-1-phenyl-ethylamino)-pyridin-3-yl]-3H-benzothiazol-2-one]"
8,1.2,"Cc1n[nH]c2ccc(-c3cncc(N[C@@H](CNC(=O)CO)c4ccccc4)c3)cc12 [Example 54, 2-Hydroxy-N-{(R)-2-[5-(3-methyl-1H-indazol-5-yl)-pyridin-3-ylamino]-2-phenyl-ethyl}-acetamide]"
9,132,"CC1(C)C(=O)Nc2ccc(-c3cncc(N[C@@H](CO)c4ccccc4)c3)cc21 [Example 2, 5-[5-((R)-2-Hydroxy-1-phenyl-ethylamino)-pyridin-3-yl]-3,3-dimethyl-1,3-dihydro-indol-2-one]"
10,1.5,"CCc1n[nH]c2ccc(-c3cncc(N[C@@H](CO)c4ccccc4)c3)cc12 [Example 21, (R)-2-[5-(3-Ethyl-1H-indazol-5-yl)-pyridin-3-ylamino]-2-phenyl-ethanol]"
11,1.1,"O=c1[nH]c2ccc(-c3cncc(N[C@@H](CO)c4ccccc4)c3)cc2[nH]1 [Example 5, 5-[5-((R)-2-Hydroxy-1-phenyl-ethylamino)-pyridin-3-yl]-1,3-dihydro-benzoimidazol-2-one]"
12,3.2,"CS(=O)(=O)c1n[nH]c2ccc(-c3cncc(N[C@@H](CO)c4ccccc4)c3)cc12 [Example 23, (R)-2-[5-(3-Methanesulfonyl-1H-indazol-5-yl)-pyridin-3-ylamino]-2-phenyl-ethanol]"
13,9.4,"OC[C@H](Nc1cncc(-c2ccc3[nH]nnc3c2)c1)c1ccccc1 [Example 26, (R)-2-[5-(1H-Benzotriazol-5-yl)-pyridin-3-ylamino]-2-phenyl-ethanol]"

# The remaining lines, values behind:
row,Structure (SMILES),IC50 [nM]
1,"OC[C@H](Nc1cncc(-c2cccc3[nH]ccc23)c1)c1ccccc1 [Example 17, (R)-2-[5-(1H-Indol-4-yl)-pyridin-3-ylamino]-2-phenyl-ethanol]",191
2,"OC[C@H](Nc1cncc(-c2ccc3c(c2)OCCO3)c1)c1ccccc1 [Example 15, (R)-2-[5-(2,3-Dihydro-benzo[1,4]dioxin-6-yl)-pyridin-3-ylamino]-2-phenyl-ethanol]",350
3,"NC(=O)C(Nc1cncc(-c2ccc3c(c2)CC(=O)N3)c1)c1ccccc1 (centres unmarked) [Example 29, 2-[5-(2-Oxo-2,3-dihydro-1H-indol-5-yl)-pyridin-3-ylamino]-2-phenyl-acetamide]",67.2
4,"O=C1Cc2cc(-c3cncc(N[C@@H](CO)c4ccccc4)c3)cc(F)c2N1 [Example 11, 7-Fluoro-5-[5-((R)-2-hydroxy-1-phenyl-ethylamino)-pyridin-3-yl]-1,3-dihydro-indol-2-one]",27.8
5,"CC(=O)NC[C@H](Nc1cncc(-c2ccc3[nH]ncc3c2)c1)c1ccccc1 [Example 40, N-{(R)-2-[5-(1H-Indazol-5-yl)-pyridin-3-ylamino]-2-phenyl-ethyl}-acetamide]",1.8
6,"CS(=O)(=O)NC[C@H](Nc1cncc(-c2ccc3[nH]ncc3c2)c1)c1ccccc1 [Example 41, N-{(R)-2-[5-(1H-Indazol-5-yl)-pyridin-3-ylamino]-2-phenyl-ethyl}-methanesulfonamide]",0.3
7,"OC[C@H](Nc1cncc(-c2ccc3c(c2)OCO3)c1)c1ccccc1 [Example 14, (R)-2-(5-Benzo[1,3]dioxol-5-yl-pyridin-3-ylamino)-2-phenyl-ethanol]",46.3
8,"COCCS(=O)(=O)NC[C@H](Nc1cncc(-c2ccc3[nH]nc(C)c3c2)c1)c1ccccc1 [Example 53, 2-Methoxy-ethanesulfonic acid {(R)-2-[5-(3-methyl-1H-indazol-5-yl)-pyridin-3-ylamino]-2-phenyl-ethyl}-amide]",1.7
9,"O=C1Cc2cc(-c3cncc(N[C@@H](CO)c4ccccc4Cl)c3)ccc2N1 [Example 3, 5-{5-[(R)-1-(2-Chloro-phenyl)-2-hydroxy-ethylamino]-pyridin-3-yl}-1,3-dihydro-indol-2-one]",2.1
10,"Cc1n[nH]c2ccc(-c3cncc(N[C@@H](CNS(C)(=O)=O)c4ccccc4)c3)cc12 [Example 52, N-{(R)-2-[5-(3-Methyl-1H-indazol-5-yl)-pyridin-3-ylamino]-2-phenyl-ethyl}-methanesulfonamide]",0.8
11,"Cc1n[nH]c2ccc(-c3cncc(N[C@@H](CNS(=O)(=O)C4CC4)c4ccccc4)c3)cc12 [Example 51, Cyclopropanesulfonic acid {(R)-2-[5-(3-methyl-1H-indazol-5-yl)-pyridin-3-ylamino]-2-phenyl-ethyl}-amide]",2.1
12,"O=C1Nc2ccc(-c3cncc(N[C@@H](CO)c4ccccc4)c3)cc2C12CC2 [Example 6, (R)-5′-(5-((2-Hydroxy-1-phenylethyl)amino)pyridin-3-yl)-spiro[cyclopropane-1,3′-indolin]-2′-one]",2.9
13,"OC[C@H](Nc1cncc(-c2cc3cn[nH]c3cn2)c1)c1ccccc1 [Example 25, (R)-2-Phenyl-2-[5-(1H-pyrazolo[3,4-c]pyridin-5-yl)-pyridin-3-ylamino]-ethanol]",0.7
14,"Cc1n[nH]c2ccc(-c3cncc(N[C@H](C(N)=O)c4ccccc4)c3)cc12 [Example 49, (S)-2-[5-(3-Methyl-1H-indazol-5-yl)-pyridin-3-ylamino]-2-phenyl-acetamide]",4.2
15,"NC(=O)C(Nc1cncc(-c2ccc3[nH]nc(F)c3c2)c1)c1ccccc1 (centres unmarked) [Example 42, 2-[5-(3-Fluoro-1H-indazol-5-yl)-pyridin-3-ylamino]-2-phenyl-acetamide]",3.5
16,"NC(=O)C(Nc1cncc(-c2ccc3c(c2)CCC(=O)N3)c1)c1ccccc1 (centres unmarked) [Example 33, 2-[5-(2-Oxo-1,2,3,4-tetrahydro-quinolin-6-yl)-pyridin-3-ylamino]-2-phenyl-acetamide]",1890
17,"COCCNC[C@H](Nc1cncc(-c2ccc3[nH]nc(F)c3c2)c1)c1ccccc1 [Example 45, (R)-N^1-[5-(3-Fluoro-1H-indazol-5-yl)-pyridin-3-yl]-N^2-(2-methoxy-ethyl)-1-phenyl-ethane-1,2-diamine]",29.5
18,"NC(=O)[C@@H](Nc1cncc(-c2ccc3[nH]ncc3c2)c1)c1ccccc1 [Example 39, (S)-2-[5-(1H-indazol-5-yl)-pyridin-3-ylamino]-2-phenyl-acetamide]",8.8
19,"Cc1n[nH]c2ccc(-c3cncc(N[C@@H](CNC(=O)C4CCCCC4)c4ccccc4)c3)cc12 [Example 57, Cyclohexanecarboxylic acid {(R)-2-[5-(3-methyl-1H-indazol-5-yl)-pyridin-3-ylamino]-2-phenyl-ethyl}-amide]",5.3
20,"NC(=O)C(Nc1cncc(-c2cc3c(cc2F)NC(=O)CC3)c1)c1ccccc1 (centres unmarked) [Example 34, 2-[5-(7-Fluoro-2-oxo-1,2,3,4-tetrahydro-quinolin-6-yl)-pyridin-3-ylamino]-2-phenyl-acetamide]",1400
21,"O=C1Cc2cc(-c3cncc(N[C@H](CO)c4ccccc4Cl)c3)ccc2N1 [Example 4, 5-{5-[(S)-1-(2-Chloro-phenyl)-2-hydroxy-ethylamino]-pyridin-3-yl}-1,3-dihydro-indol-2-one]",157
22,"NC(=O)[C@H](Nc1cncc(-c2ccc3[nH]ncc3c2)c1)c1ccccc1 [Example 38, (R)-2-[5-(1H-Indazol-5-yl)-pyridin-3-ylamino]-2-phenyl-acetamide]",0.9
23,"Cc1n[nH]c2ccc(-c3cncc(NC(CNS(C)(=O)=O)c4ccccc4)c3)cc12 (centres unmarked) [Example 50, N-{2-[5-(3-Methyl-1H-indazol-5-yl)-pyridin-3-ylamino]-2-phenyl-ethyl}-methanesulfonamide]",2.8
24,"Cc1n[nH]c2ccc(-c3cncc(N[C@@H](C(N)=O)c4ccccc4)c3)cc12 [Example 48, (R)-2-[5-(3-Methyl-1H-indazol-5-yl)-pyridin-3-ylamino]-2-phenyl-acetamide]",1.6
25,"O=C1Cc2cc(-c3cncc(N[C@@H](CO)c4ccccc4)c3)cnc2N1 [Example 7, 5-[5-((R)-2-Hydroxy-1-phenyl-ethylamino)-pyridin-3-yl]-1,3-dihydro-pyrrolo[2,3-b]pyridin-2-one]",315
